In one data set the test system is parental 2008 cell line. Description: Human ovarian tumor 2008 xenograft with cisplatin. It is filed as in vivo, female Swiss nude mice. The conditions noted are these: cisplatin single dose 4 mg/kg, squalamine 2 mg/kg, days 1-10. The procedure: Human ovarian tumor cells were injected subcutaneously (5×10^7 cells per animal) in the mid-back region of female Swiss nude mice. The human ovarian tumors were either the parental 2008 cell line (cf. R. J. Pietras et al., Oncogene 9, 1829-1838 (1994)) or a transfected variant overexpressing the Her-2/neu receptor. The overexpression of the Her-2/neu receptor is considered to make the resulting xenograft tumors more angiogenic and less responsive to chemotherapy. After one week, animals were randomized to groups receiving no treatment (controls), a single dose of cisplatin (4 mg/kg), daily treatment with squalamine (2 mg/kg, days 1-10) or cisplatin plus squalamine. The growth of tumors was then scored on day 28 following initiation of chemotherapy. The results were very similar with the parental 2008 tumor and the transfected variant overexpressing the Her-2/neu receptor. […] In this xenograft model, the [day 28 mean treated tumor weight increase divided by the day 28 mean control tumor weight increase (T/C)] x 100% was subtracted from 100% to give the tumor growth inhibition (TGI) value for each group.
In general terms: Xenograft models place foreign cells or tissue in a host animal.

A further data set addresses T1, rabbit NHE2 (Oryctolagus cuniculus, UniProt P50482).
T1 construct: expressed in transfected cells
Description: NHE activity, rabbit NHE2. It is filed as cell-based. The conditions noted are these: similar tests.

The test system of another data set is rat 9L glioma. The data set is described as follows: Glioma lethality study, rat glioma implanted into rat brain. The format is in vivo. As to conditions: 20 mg/kg/day i.p. from three days after implantation. The source says:
FIG. 10 illustrates survival test results using squalamine in a glioma lethality study with a rat 9L glioma introduced into the brains of healthy rats;
In view of these test results, applicants tested squalamine in an animal model for brain cancer. To test the effect of squalamine on tumors located in the brain, small sections (1 mm3) of existing rat gliomas were taken from rat flanks where they were being maintained and were implanted into the rat brains in two groups of rats. Thus, in this model, the tumors were viable when placed in the rat brain. Three days after implantation, and after some vasculature had developed, treatment with 20 mg/kg/day of squalamine (i.p.) was initiated in one group of rats. The control animals (“vehicle control” in FIG. 10) were given the carrier vehicle only (no squalamine), and the other animals were treated with squalamine (“Squalamine” in FIG. 10).

Data set [1] can be described thus: Pharmacokinetic study, half-life. As to conditions: in vivo. The procedure:
A pharmacokinetic study of squalamine was performed to ascertain the residence time of squalamine in the body. FIGS. 6a to 6c illustrate the test results where squalamine was administered subcutaneously (50 mg/kg, FIG. 6a), intraperitoneally (dose 240 μg; 10 mg/kg, FIG. 6b), and intravenously (10 mg/kg, FIG. 6c).

In data set [2] the test system is tumor induced capillary formation in rabbit cornea. The data set is described as follows: Rabbit corneal micropocket assay (VX2 carcinoma stimulus). The format is in vivo. As to conditions: for reduction of Angiogenesis Index (AI) vs untreated eyes: pellet 20% squalamine. The source says: In determining whether a compound is antiangiogenic, the rabbit corneal micropocket assay is an accepted standard test. In this test, an incision is made in one rabbit cornea, and a stimulus is placed in the incision. The stimulus is used to induce blood vessel formation in the normally avascular corneal region. As one example, a solid tumor in a polymeric matrix can be placed in the cornea as the stimulus because the tumor will release a number of angiogenic growth factors to stimulate new capillary growth. The tumor-derived angiogenic growth factors stimulate the endothelial cells at the scleral junction in the eye to initiate blood vessel growth toward the stimulus. A second polymer pellet (e.g., an ethylene/vinyl acetate copolymer) is placed between the scleral junction and the stimulus. This polymer pellet is either empty (a negative control test pellet), or it contains a compound whose antiangiogenic characteristics are to be tested. The polymer pellet is used to provide a controlled release of the material to be studied. Because of the avascular cornea background in the rabbit cornea, one can visually assess the results qualitatively. In addition, the number of blood vessels can be counted and their length, etc., can be measured to provide a more quantitative evaluation of the results.
The VX2 rabbit carcinoma was implanted in 26 rabbit eyes, in the normally avascular corneal region, to act as an angiogenesis stimulus. […] The eyes were examined weekly using a slit lamp stereomicroscope for three weeks after tumor implantment, and the Angiogenesis Index (“AI”) was calculated (this calculation will be described in more detail below with reference to FIG. 8). […]
To provide a quantitative evaluation, the Angiogenesis Index (“AI”) of each eye was determined. […]
The vessel length (“Lvessel”) was then measured in each cornea. The vessel length is the length of the longest vessel measured from the cornea-scleral junction to the distal edge of the longest vessel growth. The Angiogenesis Index then is determined from these measurements by the following equation: [formula]

The test system of data set [3] is capillary beds of young chick embryos. The data set is described as follows: Capillary regression in chick embryo capillary beds. The format is in vivo. As to conditions: one time dose 100 ng. As for the experimental part: A one time dose (100 ng) of squalamine was applied to capillary beds of young chick embryos that were 2-3 days old. After five minutes, this dose of squalamine appeared to have little effect on the capillary beds.
The capillary bed also was observed after sixty minutes. At this time, it was noted that some of the capillary vessels were beginning to re-appear, but only the more major vessels were re-appearing. The small vessels were not re-appearing at that time. Four to five days after the one time squalamine treatment, the effect of the squalamine dose was no longer apparent, but newly formed capillaries in the embryos remained susceptible to squalamine induced regression for a limited time while they were newly formed.
From this test, applicants concluded that squalamine-induced capillary regression is reversible, at least with respect to certain capillaries.

For a further data set, the system named is NHE. Description: Direct addition to PS 120 fibroblasts during measurement of exchanger activity. The format is cell-based. The conditions noted are these: no pretreatment. The source says: Direct addition of squalamine to PS 120 fibroblasts during measurement of the exchanger activity had no effect.
In data set [4] the test system is brush border membrane vesicle (BBMV) NHE. Description: Brush border membrane vesicle (BBMV) NHE inhibition. The format is biochemical. The conditions noted are these: tissue pretreated; 30 minutes exposure.
A further data set deals with rabbit corneas. Description: Inflammation in rabbit cornea without angiogenic stimulus. As to conditions: pellets with 2%, 10% and 20% squalamine by weight. It is filed as in vivo. The procedure:
In the rabbit corneal micropocket assay test, if the rabbit cornea becomes inflamed, this inflammation can lead to the formation of new blood vessels in the cornea. Such inflammation would skew the test results. Therefore, tests were conducted to determine whether squalamine, in and of itself, was responsible for any inflammatory response in the cornea. Several non-bioresorbable ethylene/vinyl acetate copolymer pellets were loaded with different concentrations of squalamine, namely, 2%, 10%, and 20% squalamine, by weight.

T1 sequence (P50482 whole entry): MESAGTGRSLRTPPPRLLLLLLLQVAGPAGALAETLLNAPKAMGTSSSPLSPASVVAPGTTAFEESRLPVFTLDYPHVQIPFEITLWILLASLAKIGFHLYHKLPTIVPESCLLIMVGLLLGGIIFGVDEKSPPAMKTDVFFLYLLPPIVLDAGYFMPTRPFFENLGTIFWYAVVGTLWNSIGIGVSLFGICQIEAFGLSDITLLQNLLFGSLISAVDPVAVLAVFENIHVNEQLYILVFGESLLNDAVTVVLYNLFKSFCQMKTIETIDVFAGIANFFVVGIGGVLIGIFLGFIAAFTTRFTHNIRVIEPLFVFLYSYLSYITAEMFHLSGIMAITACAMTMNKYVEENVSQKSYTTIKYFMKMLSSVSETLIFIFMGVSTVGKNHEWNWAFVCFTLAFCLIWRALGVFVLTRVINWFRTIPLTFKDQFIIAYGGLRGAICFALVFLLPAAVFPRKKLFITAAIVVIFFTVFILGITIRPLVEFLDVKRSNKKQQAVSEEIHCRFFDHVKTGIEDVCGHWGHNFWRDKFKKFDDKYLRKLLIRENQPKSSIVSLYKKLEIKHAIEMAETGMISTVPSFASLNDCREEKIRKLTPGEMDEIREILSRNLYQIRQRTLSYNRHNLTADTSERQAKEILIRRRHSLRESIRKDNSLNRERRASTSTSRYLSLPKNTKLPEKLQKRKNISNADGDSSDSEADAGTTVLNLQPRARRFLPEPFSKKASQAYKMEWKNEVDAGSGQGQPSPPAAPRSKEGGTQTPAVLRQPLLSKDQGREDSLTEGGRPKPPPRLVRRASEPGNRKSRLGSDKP

As usually defined, the half-life is the time needed for the level to fall by half in the phase considered. Higher therefore signals slow loss. As for `CC(C)[C@@H](CC[C@@H](C)[C@H]1CC[C@H]2[C@@H]3[C@H](O)C[C@H]4C[C@@H](NCCCNCCCCN)CC[C@]4(C)[C@H]3CC[C@]12C)OS(=O)(=O)O` [Squalamine, squalamine], the “Day 28 Mean Tumor Size” value with parental 2008 cell line turned out to be 2254 mm^3. Further, the “Tumor Growth Inhibition (TGI) Index” value in the data set on parental 2008 cell line (day 28) was determined as 41%. Further, the “effect on rabbit NHE2” value on rabbit NHE2 is listed as “not affected”. Further, in the data set with rat 9L glioma, the “increase in mean survival time” value is given as 38%. In the data set on rat 9L glioma, this compound returned a mean survival time of 24.9 days. Besides, the half-life is 2.87 h in data set [1] (ip, intraperitoneally, dose 240 μg, 10 mg/kg); 0.583 h in data set [1] (iv, intravenously, 10 mg/kg); 5.6 h in data set [1] (sc, subcutaneously, 50 mg/kg). In addition, the figures for the “reduction of Angiogenesis Index (AI) vs untreated eyes” value in data set [2] (Day 14) and in data set [2] (Day 21) were 37% and 43%, respectively. Also, the “vasculature of tumors in sectioned corneas” value in [2] (histology after the test) is “essentially no vasculature associated with those tumors”. Moreover, the figures for the “effect on capillary beds” value in data set [3] (after five minutes), in data set [3] (after forty minutes) and in data set [3] (in twenty minutes) were “little effect”, “additional capillary regression was observed” and “the capillary bed appeared to be disappearing”, respectively. Moreover, the “effect of direct addition during measurement of exchanger activity” value with NHE is “no effect”. Moreover, the “inhibition of BBMV NHE” value in [4] was 51%. The “inflammation in the cornea” value in the data set with rabbit corneas is on record as “did not induce inflammation”.
